Measurements from article PMC10907374, “G2019S selective LRRK2 kinase inhibitor abrogates mitochondrial DNA damage” (NPJ Parkinson's Disease, 2024).

What was measured:
[1] = system: wild-type HEK293 cells; test: Mitophagy (Mtphagy dye / Lyso dye live cell imaging) in wild-type HEK293 cells; format: cell-based, human; conditions: 20 μM FCCP, 3 h
Protocol: (§1) Thirty-five mm cell culture dishes (Cellvis, D35-20-1.5-N) were coated with poly-D-lysine (Sigma-Aldrich, P7280-5MG) for 5 min, washed with cell culture grade water (Sigma-Aldrich, W3500), and allowed to dry for at least 1 h before plating. LRRK2^G2019S/G2019S KI HEK293 and wild-type cells were passaged as described above and plated at 300,000 cells per well on poly-D-lysine-coated dishes. […] Following this, cells were washed three times with serum-free medium, and a working solution of Mtphagy dye (Dojindo, MD-01) was prepared in serum-free medium according to manufacturer protocols. Cultures were incubated with Mtphagy dye for 30 min, followed by three washes with serum-free medium. Complete medium was used to prepare a 20 µM FCCP (Abcam, ab120081) or DMSO control treatment solution, which was used to treat cells for 3 h. Following treatment, cells were then washed 3 times with serum-free medium, and a working solution of Lyso dye (Dojindo, MD-01) was prepared in serum-free medium and used to treat cells for 30 min. Complete medium lacking phenol red was prepared for use in confocal live cell imaging by combining phenol red-free DMEM/F-12 (Fisher Scientific, 21-041-025), FBS (VWR, 97068-085), and penicillin-streptomycin (VWR, 45000-652). Following Lyso dye treatment, cultures were washed three times with phenol red-free medium, followed by adding fresh phenol red-free medium to cell culture dishes. MitoBright LT Deep Red (Dojindo, MT12-12) was diluted in growth medium to prepare a 0.1 μmol/l solution and was used to treat cells for 15 min for total mitochondrial staining. Live cell imaging (5% CO2, 37 °C) was performed using a Zeiss LSM 880 Confocal Laser Scanning Microscope with Zen Black software. On average, ~70 cells were analyzed for each condition per each experimental replicate.
(§2) Following imaging, files were processed using Zen Blue software, and TIFF files of each channel were obtained for analysis. ImageJ was used to obtain readouts for image analysis. All images were converted to 8-bit format. For each respective image, the Lyso dye channel was used to create a mask delineating each lysosomal focus as a region of interest (ROI). Thresholding parameters were adjusted between biological replicates as required to ensure that the Lyso dye ROI encompassed all lysosome foci appropriately, and this was used to create a mask. This was then applied to the corresponding Mtphagy dye channel image, allowing collection of Mtphgy fluorescence intensity readouts for each lysosomal focus. Outliers were removed using Prism software (GraphPad) with the coefficient of removal set to 0.2%. Data was thresholded to exclude lysosomes not containing mitochondria by excluding fluorescence values with intensities equal to or below background levels. The number of ROIs remaining after thresholding was used to quantify lysosomes containing fluorescing mitochondria (mitolysosomes). Fluorescence intensity values for all mitolysosomes per condition per biological replicate were averaged to obtain a value of mitophagy fluorescence intensity per mitolysosome. For each replicate, all values of average mitolysosome fluorescence intensity were normalized to wild-type (vehicle treated) levels for the given replicate.

[2] = system: LRRK2^G2019S/G2019S KI HEK293 cells; test: Mitophagy (Mtphagy dye / Lyso dye live cell imaging) in LRRK2 G2019S/G2019S KI HEK293 cells; format: cell-based, human; conditions: 20 μM FCCP, 3 h
Protocol: as §1, §2

[3] = system: LRRK2 kinase; conditions: humans ref 15; cited from earlier work

Row | SMILES | mitophagy following FCCP treatment [1] | mitophagy following FCCP treatment [2] | inhibition of LRRK2 kinase by blood-based markers [3]
1 | N#CC(C#N)=NNc1ccc(OC(F)(F)F)cc1 [FCCP] | increased | defect | 
2 | CNc1nc(Nc2cn(C(C)(C)C#N)nc2C)ncc1C(F)(F)F [DNL201] |  |  | dose-dependent inhibition
